According to patent publication US8298781B2, “Compositions and methods for characterizing and regulating olfactory sensation” (Duke University, priority 2007, dated 2012):

Columns and labels:
[1] = system: human subjects; assay: Human olfactory psychophysics: intensity rating by OR7D4 genotype; assay type: in vivo; details: for intensity rating, OR7D4 RT/WM vs RT/RT subjects: 7-point scale, two concentrations pooled, N=100 RT/WM, N=255 RT/RT; for intensity rating, RT/S84N subjects vs RT/RT controls: N=7 RT/S84N; for reduction in odor intensity, OR7D4 WM/WM subjects: N=10 WM/WM, compared with RT/WM; for intensity rating, RT/P79L subjects vs RT/RT controls: N=30 RT/P79L
Procedure: (§1) Human olfactory psychophysics. All human subjects gave informed consent to participate in this study and were tested in a well-ventilated room. Normal human subjects (n=412; 218 female, 194 male; median age 34, age range 19-75) were pre-screened to exclude pregnant women and those with medical conditions causing general impairment of the sense of smell. All subjects completed two replicates of the test separated by at least 4 days. Odors were presented in amber vials as previously described (see, e.g., Keller, A., et al., Nat Neurosci 7, 337-338 (2004); herein incorporated by reference in its entirety) using bar-coded symbols to ensure that subjects were blind to the identity of all odors. The intensity and valence of 66 odors at two concentrations (“high” and “low”) and two solvents was rated using a 7-point scale. Thresholds were calculated using the single staircase method with seven reversals (see, e.g., Doty, R. L., et al., Chem Senses 20, 645-656 (1995); Doty, R. L. & Laing, D. G. in Handbook of Olfaction and Gustation (ed. Doty, R. L.) pp. 203-228 (Marcel Dekker, Inc., New York, 2003); each of which are herein incorporated by reference in their entireties). Threshold tests included both steroids as binary dilutions from […] (binary dilution 6) to 1: 134,217,728 (binary dilution 27). Subjects who could not reliably distinguish a 1:64 dilution of androstenone and androstadienone from solvent were operationally defined as anosmic to these odorous steroids, although it could not be excluded that these subjects could detect higher concentrations of these steroids (see, e.g., Bremner, E. A., et al., Chem Senses 28, 423-432 (2003); herein incorporated by reference in its entirety). Odor profiling used the method established by Dravnieks, et al. (see, e.g., Dravnieks, A., et al., Science 218, 799-801 (1982); herein incorporated by reference in its entirety).
Stimuli for olfactory psychophysics. All odors were presented as one ml of an odor dilution in either propylene glycol or paraffin oil in 20 ml amber glass vials. All of these compounds were used in the intensity and valence rating portion of the smell test.
Olfactory ratings. The intensity and valence of 66 odors were rated at two different concentrations (high and low) and the intensity and valence of the two solvents (paraffin oil and propylene glycol) was rated three times. Prior to these ratings, six stimuli that represented the spectrum of intensity and valence of the stimuli used in the study were presented to allow the subjects to calibrate the usage of the scale. The subjects were unaware that the six first stimuli served that purpose. After the rating of the 66 odors at two concentrations and the rating of the solvents, 15 stimuli that were presented earlier in the experiment were repeated to test for the effect of adaptation and olfactory fatigue on the ratings. The subjects were not aware that the last 15 stimuli served this purpose. These 15 stimuli and the six first stimuli were not included in the analysis presented here. […] The 15 control stimuli and their concentrations were as follows:
In addition there was a button on the screen labeled “I can't smell anything” and a button labeled “Don't Know”. If the “Don't Know” button was pressed, no rating was recorded. If the “I can't smell anything” button was pressed, a 0 was recorded for the intensity rating and no rating was recorded for the valence rating. The other ratings were transformed according to the following scheme:
• Extremely Weak=1 • Very Weak=2 • Slightly Weak=3 • Neither Weak nor Strong=4 • Slightly Strong=5 • Very Strong=6 • Extremely Strong=7 Valence Rating • Extremely Unpleasant=1 • Very Unpleasant=2 • Slightly Unpleasant=3 • Neither Unpleasant nor Pleasant=4 • Slightly Pleasant=5 • Very Pleasant=6 • Extremely Pleasant=7
Averages for the ratings of the different genotypes were calculated. […]

[2] = system: cortisol levels; details: Wyart et al. 2007; cited from earlier work
[3] = system: human subjects; assay: Human olfactory psychophysics: detection thresholds (single staircase method); assay type: in vivo; details: for detection threshold, RT/S84N subjects vs RT/RT controls: N=3 RT/S84N; for detection threshold, RT/P79L subjects vs RT/RT subjects: N=12 RT/P79L; for detection threshold, OR7D4 RT/WM vs RT/RT subjects: binary dilutions in propylene glycol, N=49 RT/WM, N=47 RT/RT
Procedure: as §1
For the descriptors task, the following odors and concentrations were used: propylene glcol (pure), pentadecalactone 1/500, vanillin 1/200, and androstenone 1/10,000. The following odors were used for thresholding: adrostenone and androstadienone. These were tested at an initial concentration of binary dilution 27 […] in propylene glycol and moved from there in binary steps. The range of dilutions tested was from binary dilution 27 (1:134,217,728) to binary dilution 6 (1:64). Odor vials used for intensity and valence ratings and the assigning of descriptors to odors were used for 40 sessions and then replaced by a new set. Master stocks of each odor were established at the beginning of the study to avoid intertrial variability in odor concentrations.
Threasholding. Detection thresholds (FIG. 3c and FIG. 5b-c) were determined using the “Single Staircase Threshold Detection Method” (see, e.g., Buck, L., et al., Cell 65, 175-187 (1991); Menashe, I., et al., Nat Genet. 34, 143-144 (2003); each of which are herein incorporated by reference in their entireties). This method produced very accurate data on the threshold concentration of a given dour and was easy to administer and for the subjects to perform. The thresholds for each subject on two occasions was tested at least four days apart. This helped to control for inter-trial variability in olfactory performance. The average difference between the thresholds determined on the two days was three binary dilution steps for andmstenone and five for androstadienone.
A custom computer-controlled thresholding test was administered as a self-test to each subject. Briefly, subjects were instructed to sniff two vials, one containing the solvent, the other a dilution of the odorant. Both vials have barcode labels and the procedure was done at a computer equipped with a scanner. Subjects are asked to scan the vial with the stronger odor. Depending on their answer, the procedure was repeated at an adjusted concentration. […]

[4] = system: human subjects; assay: Human olfactory psychophysics: odor profiling with 146 descriptors; assay type: in vivo; details: androstenone 1/10,000
Procedure: Human olfactory psychophysics. All human subjects gave informed consent to participate in this study and were tested in a well-ventilated room. Normal human subjects (n=412; 218 female, 194 male; median age 34, age range 19-75) were pre-screened to exclude pregnant women and those with medical conditions causing general impairment of the sense of smell. All subjects completed two replicates of the test separated by at least 4 days. Odors were presented in amber vials as previously described (see, e.g., Keller, A., et al., Nat Neurosci 7, 337-338 (2004); herein incorporated by reference in its entirety) using bar-coded symbols to ensure that subjects were blind to the identity of all odors. The intensity and valence of 66 odors at two concentrations (“high” and “low”) and two solvents was rated using a 7-point scale. Thresholds were calculated using the single staircase method with seven reversals (see, e.g., Doty, R. L., et al., Chem Senses 20, 645-656 (1995); Doty, R. L. & Laing, D. G. in Handbook of Olfaction and Gustation (ed. Doty, R. L.) pp. 203-228 (Marcel Dekker, Inc., New York, 2003); each of which are herein incorporated by reference in their entireties). Threshold tests included both steroids as binary dilutions from […] (binary dilution 6) to 1: 134,217,728 (binary dilution 27). […]
Assigning descriptors to odors. Subjects assessed the quality of six odors using an odor profiling method that has shown to produce stable profiles of odorants. […] Odor profiling typically took five minutes per odorant and was performed as a computer-controlled selftest in which the subject's responses were directly recorded. […] The descriptors used to describe the other four odors (vanillin, pentadecalactone, androstenone, and propylene glycol) were evaluated. […]

[5] = system: humans; details: literature; cited from earlier work

Compound	intensity rating, OR7D4 RT/WM vs RT/RT subjects [1]	intensity rating, RT/S84N subjects vs RT/RT controls [1]	reduction in odor intensity, OR7D4 WM/WM subjects [1]	intensity rating, RT/P79L subjects vs RT/RT controls [1]	cortisol levels in women smelling the odor vs women not smelling it [2]	detection threshold, RT/S84N subjects vs RT/RT controls [3]	detection threshold, RT/P79L subjects vs RT/RT subjects [3]	detection threshold, OR7D4 RT/WM vs RT/RT subjects [3]	use of descriptor "sickening", OR7D4 RT/WM vs RT/RT subjects [4]	use of descriptor "vanilla", OR7D4 RT/WM vs RT/RT subjects [4]	incidence of specific anosmia, OR7D4 RT/WM vs RT/RT subjects ([3]; p<0.05, chi-square test)	proportion of subjects anosmic, RT/P79L vs RT/RT subjects ([3]; p=0.018, chi-square analysis)	humans fitting the criteria of specific anosmia [5]	humans with reduced sensitivity [5]
C[C@@]12C=CC[C@H]1[C@@H]1CCC3=CC(=O)CC[C@]3(C)[C@H]1CC2 [androstadienone, androsta-4,16-dien-3-one]	less intense	more intense	more marked	less intense	maintained at higher levels	higher	lower	higher detection thresholds						
C[C@]12CCC(=O)C[C@@H]1CC[C@@H]1[C@@H]2CC[C@]2(C)C=CC[C@@H]12 [androstenone, 5α-androst-16-en-3-one]	less intense	more intense	more marked	less intense		higher	lower	higher detection thresholds	less likely	more likely	greater incidence	lower	6%	Up to 30%
